Measured values published in the supplement of paper PMC11451515.

Test system: P12-Ichikawa
Experiment: cell viability relative to DMSO control; higher = less cytotoxic
Conditions: 48 h
Summary of the method: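 Viability is expressed as a percentage of DMSO wells within each plate, and cell-free wells serve as background. Seeding densities in the 1536-well plates (5 μl) were 500 cells/well for NOMO1 or SEM leukemia cells and 1000 cells/well for P12-Ichikawa. Each line was adapted for at least four passages in each medium. Library compounds in DMSO were pin-dosed at 47 μM to 0.79 nM (11 points, threefold), and CellTiter-Glo One luminescence was read after 48 h at 37°C.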

[1] = HPLM + 10% dialyzed FBS, 0.000781 µM
[2] = HPLM + 10% dialyzed FBS, 0.00234 µM
[3] = HPLM + 10% dialyzed FBS, 0.00702 µM
[4] = HPLM + 10% dialyzed FBS, 0.0211 µM
[5] = HPLM + 10% dialyzed FBS, 0.0632 µM
[6] = HPLM + 10% dialyzed FBS, 0.19 µM
[7] = HPLM + 10% dialyzed FBS, 0.569 µM
[8] = HPLM + 10% dialyzed FBS, 1.71 µM
[9] = HPLM + 10% dialyzed FBS, 5.12 µM
[10] = HPLM + 10% dialyzed FBS, 15.4 µM
[11] = HPLM + 10% dialyzed FBS, 46.1 µM
[12] = RPMI 5 mM glucose + 10% FBS, 0.000781 µM
[13] = RPMI 5 mM glucose + 10% FBS, 0.00234 µM
[14] = RPMI 5 mM glucose + 10% FBS, 0.00702 µM
[15] = RPMI 5 mM glucose + 10% FBS, 0.0211 µM
[16] = RPMI 5 mM glucose + 10% FBS, 0.0632 µM
[17] = RPMI 5 mM glucose + 10% FBS, 0.19 µM
[18] = RPMI 5 mM glucose + 10% FBS, 0.569 µM
[19] = RPMI 5 mM glucose + 10% FBS, 1.71 µM
[20] = RPMI 5 mM glucose + 10% FBS, 5.12 µM
[21] = RPMI 5 mM glucose + 10% FBS, 15.4 µM
[22] = RPMI 5 mM glucose + 10% FBS, 46.1 µM
[23] = RPMI 5 mM glucose + 10% dialyzed FBS, 0.000781 µM
[24] = RPMI 5 mM glucose + 10% dialyzed FBS, 0.00234 µM
[25] = RPMI 5 mM glucose + 10% dialyzed FBS, 0.00702 µM
[26] = RPMI 5 mM glucose + 10% dialyzed FBS, 0.0211 µM
[27] = RPMI 5 mM glucose + 10% dialyzed FBS, 0.0632 µM
[28] = RPMI 5 mM glucose + 10% dialyzed FBS, 0.19 µM
[29] = RPMI 5 mM glucose + 10% dialyzed FBS, 0.569 µM
[30] = RPMI 5 mM glucose + 10% dialyzed FBS, 1.71 µM
[31] = RPMI 5 mM glucose + 10% dialyzed FBS, 5.12 µM
[32] = RPMI 5 mM glucose + 10% dialyzed FBS, 15.4 µM
[33] = RPMI 5 mM glucose + 10% dialyzed FBS, 46.1 µM

SMILES | cell viability [1] | cell viability [2] | cell viability [3] | cell viability [4] | cell viability [5] | cell viability [6] | cell viability [7] | cell viability [8] | cell viability [9] | cell viability [10] | cell viability [11] | cell viability [12] | cell viability [13] | cell viability [14] | cell viability [15] | cell viability [16] | cell viability [17] | cell viability [18] | cell viability [19] | cell viability [20] | cell viability [21] | cell viability [22] | cell viability [23] | cell viability [24] | cell viability [25] | cell viability [26] | cell viability [27] | cell viability [28] | cell viability [29] | cell viability [30] | cell viability [31] | cell viability [32] | cell viability [33]
NC(=O)Nc1sc(-c2ccc(F)cc2)cc1C(N)=O | 113% | 115% | 116% | 108% | 114% | 111% | 104% | 105% | 83.4% | 67.3% | 24.3% | 113% | 114% | 111% | 110% | 105% | 119% | 106% | 106% | 83.9% | 64.6% | 22.1% | 118% | 119% | 117% | 110% | 115% | 112% | 110% | 97.3% | 82.4% | 70.2% | 27.3%
C[C@@H]1CCN(C(=O)CC#N)C[C@@H]1N(C)c1ncnc2[nH]ccc12 | 97.1% | 87.1% | 82.4% | 91.3% | 86.7% | 88.5% | 86.2% | 87.7% | 77.5% | 84% | 78.6% | 81.9% | 85.6% | 83.6% | 86.3% | 95.5% | 85.2% | 92.4% | 88.2% | 87.6% | 82.1% | 81.9% | 81.9% | 80.6% | 84.7% | 81.8% | 79.4% | 79.4% | 78.7% | 76.4% | 78.2% | 72.1% | 73.8%
O=S(=O)([O-])CCS.[Na+] | 109% | 122% | 125% | 119% | 127% | 126% | 126% | 129% | 30.8% | 18.1% | 15.3% | 100% | 114% | 116% | 118% | 132% | 121% | 136% | 134% | 37% | 18.5% | 16.7% | 114% | 121% | 121% | 120% | 130% | 131% | 135% | 139% | 80.8% | 43.2% | 20.1%
CCc1cc(C(N)=S)ccn1 | 116% | 115% | 120% | 126% | 124% | 122% | 127% | 114% | 104% | 93.7% | 80.2% | 108% | 121% | 118% | 115% | 122% | 134% | 119% | 128% | 114% | 103% | 104% | 111% | 124% | 119% | 120% | 121% | 129% | 122% | 120% | 104% | 95.9% | 86.5%
CCc1cc2c(cc1N1CCC(N3CCOCC3)CC1)C(C)(C)c1[nH]c3cc(C#N)ccc3c1C2=O | 100% | 99.5% | 110% | 130% | 138% | 130% | 131% | 121% | 116% | 115% | 65.3% | 73.7% | 73.3% | 97.2% | 134% | 126% | 124% | 130% | 100% | 110% | 107% | 102% | 86.2% | 81.9% | 108% | 127% | 136% | 128% | 125% | 118% | 109% | 122% | 96.5%
CN1CCN(c2c(F)cc3c(=O)c(C(=O)O)cn(CCF)c3c2F)CC1 | 99.8% | 101% | 106% | 112% | 112% | 111% | 111% | 115% | 121% | 120% | 108% | 101% | 104% | 95.5% | 108% | 109% | 121% | 107% | 108% | 103% | 112% | 111% | 95.9% | 104% | 110% | 107% | 110% | 107% | 110% | 108% | 119% | 115% | 116%
CCOC(=O)C(C#N)C\1C2=CC(=CC=C2O\C(=C1C(=O)OCC)N)Br (stereo unspecified) | 100% | 103% | 108% | 92.8% | 103% | 103% | 99.1% | 104% | 105% | 94.6% | 75.7% | 104% | 102% | 106% | 88.5% | 106% | 117% | 103% | 102% | 97.9% | 90% | 89.4% | 101% | 99.1% | 105% | 83.9% | 94.9% | 105% | 102% | 92.7% | 101% | 95% | 80%
